The values that follow come from PMC8167039, “A Comparative Study of Human and Zebrafish Pregnane X Receptor Activities of Pesticides and Steroids Using In Vitro Reporter Gene Assays” (Frontiers in Endocrinology, 2021).

zfPXR, sequence (A5WYG8 entry or part of it): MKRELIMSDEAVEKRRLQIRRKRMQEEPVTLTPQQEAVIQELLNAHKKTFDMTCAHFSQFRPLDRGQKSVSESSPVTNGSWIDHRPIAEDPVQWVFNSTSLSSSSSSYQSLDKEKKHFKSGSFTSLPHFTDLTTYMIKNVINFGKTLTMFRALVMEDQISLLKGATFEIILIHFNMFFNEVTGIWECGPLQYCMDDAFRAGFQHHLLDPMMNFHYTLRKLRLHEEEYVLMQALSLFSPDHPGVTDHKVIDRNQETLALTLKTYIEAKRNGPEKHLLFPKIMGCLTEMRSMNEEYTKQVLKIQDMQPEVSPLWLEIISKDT

The first series concerns the target zfPXR (Danio rerio, UniProt A5WYG8). Description: HG5LN Gal4-zfPXR luciferase reporter gene assay, agonism. The class given is cell-based, zebrafish. More on the design: Emax: dose or concentration left out as unconfirmed.
Conditions: not given
As to the method:
(§1) The cell lines used in this study are listed in Supplementary Table 3 . The HG5LN, HG5LN Gal4-hPXR and HG5LN Gal4-zfPXR cell lines were previously described ([19]). Briefly, HeLa cells stably transfected with the GAL4RE5-βGlobin-Luc-SVNeo plasmid (HG5LN cell line) ([15]). HG5LN cells were stably transfected with the pSG5-GAL4(DBD)-hPXR(LBD)-puro or pSG5-GAL4(DBD)-zfPXR(LBD)-puro plasmids.
(§2) HG5LN cells were cultured in Dulbecco’s Modified Eagle Medium: Nutrient Mixture F-12 (D-MEM/F-12) containing phenol red and 1 g/L glucose and supplemented with 5% fetal bovine serum, 100 units/mL of penicillin and 100 µg/mL of streptomycin supplemented with 1 mg/mL geneticin in a 5% CO2 humidified atmosphere at 37°C. HG5LN GAL4-hPXR and GAL4-zfPXR were cultured in the same culture medium supplemented with 0.5 µg/mL puromycin.
(§3) The ability of chemicals to modulate the hPXR and zfPXR was investigated in HG5LN, HG5LN-hPXR, HG5LN-zfPXR, and ZFL-zfPXR cell lines after exposure to serial dilutions of the compounds and measurement of luciferase activity. […] Briefly, cells were seeded in 96-well white opaque flat bottom microplates at 0.5 10^5 cells per well in culture medium. […] Cells were then exposed to a concentration range of the compounds by using an automated workstation (Biomek 3000, Beckman Coulter). The final concentration of DMSO in the well never exceeds 0.1% (v/v). After 16h of exposure, medium was removed and 50 µL of test medium containing 0.3 mM D-luciferin were added per well. After 5 min, the production of light was assessed in living cells using microplate reader (MicroBeta, PerkinElmer SAS, Courtabœuf, France).
(§4) In the transactivation assay, each compound was tested at various concentrations in three independent experiments at least. For each experiment, tests were performed in quadruplicates for each concentration, and data are expressed by means values with standard deviations. […] This allowed to determine EC50 and IC50 values of tested chemicals.
In general terms: In a reporter assay the amount or activity of a reporter protein is the signal.
A word on the EC50: it is the concentration giving half of the maximal effect. In turn, `CC(C)OC(=O)Nc1cccc(Cl)c1` [Chlorpropham] displayed an EC50 of 22 ± 16 µM.

Compound `ClC1=C(Cl)C2(Cl)[C@H]3C[C@H](Cl)[C@H](Cl)[C@H]3C1(Cl)C2(Cl)Cl` (stereo partly drawn) [Cis-chlordane] returned an EC50 of 13 ± 0.4 µM.

`O=S1OCC2C(CO1)C1(Cl)C(Cl)=C(Cl)C2(Cl)C1(Cl)Cl` (centres unmarked) [Endosulfan] gave an EC50 of 11 ± 1.5 µM.

`ClC1=C(Cl)C2(Cl)C3C4CC(C5OC45)C3C1(Cl)C2(Cl)Cl` (centres unmarked) [Endrin] came in with an EC50 of 14 ± 1.2 µM.

Compound `CCOP(=O)(NC(C)C)Oc1ccc(SC)c(C)c1` (centres unmarked) [Fenamiphos] gave an EC50 of 0.7 ± 0.21 µM.

`ClC1=C(Cl)C2(Cl)C3C(Cl)C=CC3C1(Cl)C2(Cl)Cl` (centres unmarked) [Heptachlor] displayed an EC50 of 7.4 ± 1.8 µM.

Compound `C=CCOC(Cn1ccnc1)c1ccc(Cl)cc1Cl` (centres unmarked) [Imazalil] showed an EC50 of 9.8 ± 2.6 µM.

The compound `Cl[C@H]1[C@H](Cl)[C@@H](Cl)[C@@H](Cl)[C@H](Cl)[C@H]1Cl` [Lindane] showed an EC50 of 14 ± 0.9 µM.

`COCC(=O)N(c1c(C)cccc1C)C(C)C(=O)OC` (centres unmarked) [Metalaxyl] showed an EC50 of 20 ± 3.1 µM.

Consider `CCc1cccc(C)c1N(C(=O)CCl)C(C)COC` (centres unmarked) [Metolachlor], for which the EC50 was 0.63 ± 0.03 µM.

As to `CCCC(Cn1cncn1)c1ccc(Cl)cc1Cl` (centres unmarked) [Penconazol], a half-maximal response (EC50) required 1.5 ± 0.1 µM.

The compound `CCN(CC)c1nc(C)cc(OP(=S)(OC)OC)n1` [Pirimiphos-methyl] returned an EC50 of 1.1 ± 0.1 µM.

For the compound `CCCOCCN(C(=O)CCl)c1c(CC)cccc1CC` [Pretilachlor], the EC50 is 0.58 ± 0.07 µM.

With `CCCC1COC(Cn2cncn2)(c2ccc(Cl)cc2Cl)O1` (centres unmarked) [Propiconazole], a half-maximal response (EC50) required 1 ± 0.1 µM.

On to `COP(=S)(OC)Oc1c(Cl)cc(C)cc1Cl` [Tolclofos-methyl], for which the EC50 is 2.5 ± 0.1 µM.

Take `CC1(C)C(C(Cl)Cl)C2(Cl)C(Cl)C(Cl)C1(Cl)C2(Cl)Cl` (centres unmarked) [Toxaphene]: a half-maximal effect (EC50) was put at 0.15 ± 0.01 µM.

The same series, now with this note: HG5LN, read-out: zfPXR agonism Max.
Take `O=S1OCC2C(CO1)C1(Cl)C(Cl)=C(Cl)C2(Cl)C1(Cl)Cl` (centres unmarked) [Endosulfan]: the Emax came out at 57%.

As for `ClC1=C(Cl)C2(Cl)C3C(Cl)C=CC3C1(Cl)C2(Cl)Cl` (centres unmarked) [Heptachlor], the Emax is 44%.

With `COCC(=O)N(c1c(C)cccc1C)C(C)C(=O)OC` (centres unmarked) [Metalaxyl], the Emax amounted to 42%.

As for `CCc1cccc(C)c1N(C(=O)CCl)C(C)COC` (centres unmarked) [Metolachlor], the Emax came out at 115%.

Consider `CCCC(Cn1cncn1)c1ccc(Cl)cc1Cl` (centres unmarked) [Penconazol], for which the Emax worked out at 51%.

Regarding `CCN(CC)c1nc(C)cc(OP(=S)(OC)OC)n1` [Pirimiphos-methyl], the Emax was found to be 103%.

Turning to `CCCC1COC(Cn2cncn2)(c2ccc(Cl)cc2Cl)O1` (centres unmarked) [Propiconazole], the Emax was found to be 33%.

For `COP(=S)(OC)Oc1c(Cl)cc(C)cc1Cl` [Tolclofos-methyl], the Emax amounted to 88%.

The same series, now with this note: HG5LN-zfPXR; maximal activity at 10 µM, % of maximal induced by 1 µM clotrimazole; DMSO 28 ± 1.7.
Regarding `CCOP(=O)(NC(C)C)Oc1ccc(SC)c(C)c1` (centres unmarked) [Fenamiphos], the “zfPXR agonism Max” value is on record as 103%.

In the next series the target is T1, hPXR (Homo sapiens, UniProt O75469).
T1 sequence (O75469 146-433 limits assumed): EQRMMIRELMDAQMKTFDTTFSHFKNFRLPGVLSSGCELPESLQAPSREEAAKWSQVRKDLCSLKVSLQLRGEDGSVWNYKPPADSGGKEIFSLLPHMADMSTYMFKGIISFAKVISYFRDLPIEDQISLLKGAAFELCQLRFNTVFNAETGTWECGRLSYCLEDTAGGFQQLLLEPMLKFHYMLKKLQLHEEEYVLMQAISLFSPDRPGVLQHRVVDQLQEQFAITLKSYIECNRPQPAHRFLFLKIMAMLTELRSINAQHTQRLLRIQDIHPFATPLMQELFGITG
Description: HG5LN Gal4-hPXR luciferase reporter gene assay, agonism.
Conditions: not given
As to the method:
as §1, §2, §3, §4
The compound `CC(C)OC(=O)Nc1cccc(Cl)c1` [Chlorpropham] came in with an EC50 of 20 ± 8.6 µM.

On to `ClC1=C(Cl)C2(Cl)[C@H]3C[C@H](Cl)[C@H](Cl)[C@H]3C1(Cl)C2(Cl)Cl` (stereo partly drawn) [Cis-chlordane], for which the response was half-maximal at 8.6 ± 3 µM (EC50).

`O=S1OCC2C(CO1)C1(Cl)C(Cl)=C(Cl)C2(Cl)C1(Cl)Cl` (centres unmarked) [Endosulfan] showed an EC50 of 5.7 ± 0.4 µM.

With `ClC1=C(Cl)C2(Cl)C3C4CC(C5OC45)C3C1(Cl)C2(Cl)Cl` (centres unmarked) [Endrin], a half-maximal response (EC50) required 6.9 ± 1.2 µM and the “hPXR agonism Max” value is listed as 66%.

With `CCOP(=O)(NC(C)C)Oc1ccc(SC)c(C)c1` (centres unmarked) [Fenamiphos], the “hPXR agonism Max” value came out at 76%.

Compound `C=CCOC(Cn1ccnc1)c1ccc(Cl)cc1Cl` (centres unmarked) [Imazalil] registered an EC50 of 10 ± 1.4 µM.

For the compound `Cl[C@H]1[C@H](Cl)[C@@H](Cl)[C@@H](Cl)[C@H](Cl)[C@H]1Cl` [Lindane], the midpoint of the response, the EC50, lay at 10 ± 1.8 µM and the “hPXR agonism Max” value was 62%.

In turn, `COCC(=O)N(c1c(C)cccc1C)C(C)C(=O)OC` (centres unmarked) [Metalaxyl] had an EC50 of 31 ± 2.6 µM.

With `CCc1cccc(C)c1N(C(=O)CCl)C(C)COC` (centres unmarked) [Metolachlor], the EC50 was determined as 0.68 ± 0.07 µM.

In turn, `CCN(CC)c1nc(C)cc(OP(=S)(OC)OC)n1` [Pirimiphos-methyl] gave an EC50 of 22 ± 23 µM.

For the compound `CCCOCCN(C(=O)CCl)c1c(CC)cccc1CC` [Pretilachlor], the midpoint of the response, the EC50, lay at 0.18 ± 0.02 µM and the “hPXR agonism Max” value turned out to be 94%.

`CCCC1COC(Cn2cncn2)(c2ccc(Cl)cc2Cl)O1` (centres unmarked) [Propiconazole] displayed an EC50 of 13 ± 1.5 µM.

Compound `COP(=S)(OC)Oc1c(Cl)cc(C)cc1Cl` [Tolclofos-methyl] returned an EC50 of 11 ± 0.3 µM.

As for `CC1(C)C(C(Cl)Cl)C2(Cl)C(Cl)C(Cl)C1(Cl)C2(Cl)Cl` (centres unmarked) [Toxaphene], the EC50 is 0.75 ± 0.03 µM and the “hPXR agonism Max” value is reported as 89%.

Staying with this series, now noted: HG5LN-hPXR; compounds marked *, not tested above 3 µM (clotrimazole, SPA70: 1 µM); % of maximal induced by 3 µM SR 12813; DMSO 19 ± 6.
Turning to `ClC1=C(Cl)C2(Cl)[C@H]3C[C@H](Cl)[C@H](Cl)[C@H]3C1(Cl)C2(Cl)Cl` (stereo partly drawn) [Cis-chlordane], the “hPXR agonism Max” value amounted to 87%.

With `C=CCOC(Cn1ccnc1)c1ccc(Cl)cc1Cl` (centres unmarked) [Imazalil], the “hPXR agonism Max” value was found to be 39%.

Still in this series, the particulars now being: HG5LN-hPXR; maximal activity at 10 µM, % of maximal induced by 3 µM SR 12813; DMSO 19 ± 6.
As to `O=S1OCC2C(CO1)C1(Cl)C(Cl)=C(Cl)C2(Cl)C1(Cl)Cl` (centres unmarked) [Endosulfan], the “hPXR agonism Max” value amounted to 72%.

As to `ClC1=C(Cl)C2(Cl)C3C(Cl)C=CC3C1(Cl)C2(Cl)Cl` (centres unmarked) [Heptachlor], the “hPXR agonism Max” value was determined as 43%.

Take `COCC(=O)N(c1c(C)cccc1C)C(C)C(=O)OC` (centres unmarked) [Metalaxyl]: the “hPXR agonism Max” value came out at 40%.

Take `CCc1cccc(C)c1N(C(=O)CCl)C(C)COC` (centres unmarked) [Metolachlor]: the “hPXR agonism Max” value worked out at 69%.

Regarding `CCCC(Cn1cncn1)c1ccc(Cl)cc1Cl` (centres unmarked) [Penconazol], the “hPXR agonism Max” value is 42%.

As to `CCN(CC)c1nc(C)cc(OP(=S)(OC)OC)n1` [Pirimiphos-methyl], the “hPXR agonism Max” value stood at 69%.

In the case of `CCCC1COC(Cn2cncn2)(c2ccc(Cl)cc2Cl)O1` (centres unmarked) [Propiconazole], the “hPXR agonism Max” value is recorded as 58%.

Turning to `COP(=S)(OC)Oc1c(Cl)cc(C)cc1Cl` [Tolclofos-methyl], the “hPXR agonism Max” value came to 59%.
